Some results are limits rather than exact numbers.

Experiment [1] deals with T1, hAT1R (Homo sapiens, UniProt P30556).
T1 sequence (P30556 1-359): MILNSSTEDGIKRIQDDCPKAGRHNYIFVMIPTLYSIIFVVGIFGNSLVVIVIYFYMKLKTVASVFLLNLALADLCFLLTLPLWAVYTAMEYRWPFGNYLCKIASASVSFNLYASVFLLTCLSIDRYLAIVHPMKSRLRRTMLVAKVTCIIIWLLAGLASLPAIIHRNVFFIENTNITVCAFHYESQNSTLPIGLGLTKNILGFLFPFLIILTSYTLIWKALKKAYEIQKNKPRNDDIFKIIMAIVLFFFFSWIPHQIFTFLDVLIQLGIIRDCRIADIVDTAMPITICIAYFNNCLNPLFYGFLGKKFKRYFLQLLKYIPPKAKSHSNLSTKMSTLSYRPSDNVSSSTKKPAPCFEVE
Nature of the experiment: BRET β-arrestin2 biosensor assay, higher receptor expression (hAT1R 5 ng/well), HEK293 cells. The class given is cell-based. The following applies: for EC50: High AT1R Expression.

Experiment [2] addresses T1, hAT1R. Nature of the experiment: cell-based. The following applies: agonist mode; for EC50: read-out: BRET P63 EC50. In general terms: BRET reads energy transfer from a luciferase to a nearby fluorophore.
The target in experiment [3] is T2, AGTR1 (Homo sapiens, UniProt P30556).
T2 construct: host or cells: Pathunter CHO-K1 AGTR1 β-arrestin cell line (CHO-K1)
T2 sequence (P30556 1-359): T1 sequence (P30556 1-359)
Nature of the experiment: DiscoveRx IP1 accumulation assay (HTRF), agonist mode, Pathunter CHO-K1 AGTR1 β-arrestin cell line. It is filed as cell-based. The settings on record: for EC50: read-out: IP-1 EC50. Summed up: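 Agonist mode in CHO-K1 AGTR1 β-arrestin cells plated 14-16 h before; compounds at varying concentrations for 90 min at 37° C, IP1 accumulation read by HTRF (D2-conjugate and anti-IP1 cryptate, 20 min room temperature). EC50 from 4-parameter logistic fit; activity given as percentage of maximal AII effect.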

The target of experiment [4] is T2, AGTR1. The experiment in a line: DiscoveRx β-arrestin2 recruitment assay (enzyme complementation, Pathunter CHO-K1 AGTR1 β-arrestin cell line). It is filed as cell-based. The following applies: for DiscoveRx β-arrestin2 Ymax (%): maximal response. A digest of the protocol: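 Chemiluminescent enzyme-complementation read-out of β-arrestin2 recruitment to AGTR1 in engineered CHO-K1 cells after 90 min compound exposure at 37° C. Values are 4-parameter logistic EC50s in agonist mode, IC50s in antagonist mode, with efficacy relative to the maximal All response.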
For orientation: Recruitment of arrestin is a read-out of receptor activation apart from second messengers.

For experiment [5], the target named is T1, hAT1R. Nature of the experiment: cell-based. The following applies: section of the 42nd table ending at r951, example numbering restarts after the DiscoveRx section; read-out: β-arrestin2 EC50.
The mark [6] stands for this setting: DiscoveRx β-arrestin2 recruitment.

A word on the EC50: it is the midpoint of the concentration-response curve. Regarding `CCc1nc2c(C)cc(C)nc2n1Cc1ccc(-c2cc(-c3cn(Cc4ccccc4)nn3)ccc2-c2nnn[nH]2)cc1` [Example 238], at hAT1R [1], the “BRET β-Arrestin2 High AT1R Expression Ymax (%)” value was found to be 62.6% and a half-maximal effect (EC50) was put at 281 nM. In addition, on hAT1R [2], the EC50 was more than 100000 nM. On AGTR1 [3], the “IP-1 Ymax (%)” value was determined as 9.6% and the EC50 came out at 1260 nM. At AGTR1 [4] (setting [6]), the half-maximal effective concentration (EC50) is 198 nM and the “DiscoveRx β-arrestin2 Ymax (%)” value was 22.4%.
Consider `CCc1nc2c(C)cc(C)nc2n1Cc1ccc(-c2cc(-c3cccc(C)c3)ccc2C(=O)O)nn1` [Example 200, 3-(6-((2-ethyl-5,7-dimethyl-3H-imidazo[4,5-b]pyridin-3-yl)methyl)pyridazin-3-yl)-3′-methylbiphenyl-4-carboxylic acid], for which, on hAT1R [1], the “BRET β-Arrestin2 High AT1R Expression Ymax (%)” value was determined as 54.3% and the EC50 was 1780 nM. Besides, at hAT1R [2], the “BRET P63 Ymax” value is 4.3% and the EC50 amounted to 2040 nM. Further, on AGTR1 [3], the “IP-1 Ymax (%)” value turned out to be 11.4% and the EC50 worked out at 2720 nM. For the same compound, on AGTR1 [4] (setting [6]), the midpoint of the response, the EC50, lay at 709 nM and the “DiscoveRx β-arrestin2 Ymax (%)” value worked out at 25.1%.
As for `CCc1nc2c(C)cc(C)nc2n1Cc1ccc(-c2cc(-n3cc(CCO)nn3)ccc2-c2nnn[nH]2)cc1` [Example 226], at hAT1R [1], the “BRET β-Arrestin2 High AT1R Expression Ymax (%)” value came to 35.0%. The EC50 on hAT1R [1] is 348 nM; at hAT1R [2] it was more than 100000 nM; on AGTR1 [3] it was 499 nM; on AGTR1 [4] (setting [6]), 242 nM. Further, the “IP-1 Ymax (%)” value at AGTR1 [3] was determined as 6.7%. Moreover, at AGTR1 [4] (setting [6]), the “DiscoveRx β-arrestin2 Ymax (%)” value amounted to 17.5%.
As to `CCc1nc2c(C)cc(C)nc2n1Cc1cnc(-c2cc(-c3cccc(C)c3)ccc2C(=O)O)cn1` [Example 199, 3-(5-((2-ethyl-5,7-dimethyl-3H-imidazo[4,5-b]pyridin-3-yl)methyl)pyrazin-2-yl)-3′-methylbiphenyl-4-carboxylic acid], on hAT1R [1], the “BRET β-Arrestin2 High AT1R Expression Ymax (%)” value was 88.5% and the EC50 came out at 223 nM. In addition, on hAT1R [2], the “BRET P63 Ymax” value is listed as 9.6% and the EC50 was 571 nM. Besides, at AGTR1 [3], the “IP-1 Ymax (%)” value turned out to be 9.3% and the half-maximal effective concentration (EC50) stood at 713 nM. Moreover, at AGTR1 [4] (setting [6]), the EC50 came out at 273 nM and the “DiscoveRx β-arrestin2 Ymax (%)” value was 34.2%.
For the compound `Cc1ccnc(-c2ccc(-c3nn[nH]n3)c(-c3ccc(Cn4nc(C)nc4C)cc3)c2)c1` [Example 458, 2-(4′-((3,5-Dimethyl-1H-1,2,4-triazol-1-yl)methyl)-6-(2H-tetrazol-5-yl)-[1,1′-biphenyl]-3-yl)-4-methylpyridine], the EC50 was 253 nM on AGTR1 [4] and 385 nM at hAT1R [5].
In the same order, the values of `Cc1nc(C)n(Cc2ccc(-c3cc(-c4ccccc4)ccc3-c3nn[nH]n3)cc2)n1` [Example 456, 5-(4″-((3,5-Dimethyl-1H-1,2,4-triazol-1-yl)methyl)-[1,1′:3′,1″-terphenyl]-4′-yl)-2H-tetrazole] are 1870 nM and 1970 nM.
For `CCc1nc2c(C)cc(C)nc2n1Cc1ccc(-c2cc(-n3cc(C4=CCCC4)nn3)ccc2-c2nnn[nH]2)cc1` [Example 229], on hAT1R [1], the “BRET β-Arrestin2 High AT1R Expression Ymax (%)” value is reported as 82.1% and the midpoint of the response, the EC50, lay at 25.7 nM. Besides, the EC50 at hAT1R [2] is more than 100000 nM. Moreover, at AGTR1 [3], the “IP-1 Ymax (%)” value was found to be 6.7% and the 50% effective concentration (EC50) came to 195 nM. Further, at AGTR1 [4] (setting [6]), the EC50 turned out to be 39 nM and the “DiscoveRx β-arrestin2 Ymax (%)” value was 24.0%.
Turning to `CCc1nc2c(C)cc(C)nc2n1Cc1ccc(-c2cc(-c3cccc(C)c3)ccc2C(=O)O)nc1` [Example 203, 3-(5-((2-ethyl-5,7-dimethyl-3H-imidazo[4,5-b]pyridin-3-yl)methyl)pyridin-2-yl)-3′-methyl-[1,1′-biphenyl]-4-carboxylic acid], on hAT1R [1], the “BRET β-Arrestin2 High AT1R Expression Ymax (%)” value worked out at 79.1% and the EC50 is 124 nM. Besides, on hAT1R [2], the “BRET P63 Ymax” value is 5.4% and the EC50 is 154 nM. In addition, on AGTR1 [3], the “IP-1 Ymax (%)” value turned out to be 34.9% and the EC50 worked out at 5370 nM. For the same compound, at AGTR1 [4] (setting [6]), the 50% effective concentration (EC50) stood at 162 nM and the “DiscoveRx β-arrestin2 Ymax (%)” value is listed as 32.3%.
Consider `CCc1nc2c(C)cc(C)nc2n1Cc1ccc(-c2cc(Oc3nccs3)ccc2-c2nn[nH]n2)cc1` [Example 252], for which, at hAT1R [1], the “BRET β-Arrestin2 High AT1R Expression Ymax (%)” value came to 41.4% and the response was half-maximal at 29.4 nM (EC50). The EC50 at hAT1R [2] is more than 100000 nM. At AGTR1 [3], the “IP-1 Ymax (%)” value worked out at 8.8% and the EC50 came out at 144 nM. Also, at AGTR1 [4] (setting [6]), the EC50 worked out at 34.3 nM and the “DiscoveRx β-arrestin2 Ymax (%)” value came to 15.8%.
Take `Cc1cnn(-c2ccc(-c3nn[nH]n3)c(-c3ccc(Cn4cnnc4C)cc3)c2)c1` [Example 459, 5-(5-(4-Methyl-1H-pyrazol-1-yl)-4′-((3-methyl-4H-1,2,4-triazol-4-yl)methyl)-[1,1′-biphenyl]-2-yl)-2H-tetrazole]: the EC50 at AGTR1 [4] is more than 10000 nM; on hAT1R [5], 1240 nM.
In the case of `CCc1nc2c(C)cc(C)nc2n1Cc1ccc(-c2cc(Oc3cncc(OC)c3)ccc2-c2nn[nH]n2)cc1` [Example 261], at hAT1R [1], the “BRET β-Arrestin2 High AT1R Expression Ymax (%)” value is on record as 62.3% and the EC50 was found to be 40 nM. The EC50 on hAT1R [2] was more than 100000 nM. On AGTR1 [3], the “IP-1 Ymax (%)” value amounted to 11.5% and the concentration giving a half-maximal response (EC50) is 782 nM. On AGTR1 [4] (setting [6]), the half-maximal effective concentration (EC50) is 137 nM and the “DiscoveRx β-arrestin2 Ymax (%)” value was 17.3%.
Regarding `CCc1nc2c(C)cc(C)nc2n1Cc1ccc(-c2cc(Oc3cc(N)ccn3)ccc2-c2nn[nH]n2)cc1` [Example 249], at hAT1R [1], the “BRET β-Arrestin2 High AT1R Expression Ymax (%)” value is 80.3% and a half-maximal response (EC50) required 8 nM. For the same compound, at hAT1R [2], the “BRET P63 Ymax” value was found to be 6.6% and the EC50 is 9.5 nM. Moreover, at AGTR1 [3], the “IP-1 Ymax (%)” value was 17.6% and the 50% effective concentration (EC50) was 70.5 nM. Further, at AGTR1 [4] (setting [6]), the EC50 amounted to 23.8 nM and the “DiscoveRx β-arrestin2 Ymax (%)” value is recorded as 34.2%.
For the compound `CCc1nc2c(C)cc(C)nc2n1Cc1cnc(-c2cc(-c3cccc(C)c3)ccc2C(=O)O)nc1` [Example 202, 3-(5-((2-ethyl-5,7-dimethyl-3H-imidazo[4,5-b]pyridin-3-yl)methyl)pyrimidin-2-yl)-3′-methylbiphenyl-4-carboxylic acid], on hAT1R [1], the “BRET β-Arrestin2 High AT1R Expression Ymax (%)” value was determined as 52.0% and the EC50 came out at 1620 nM. Moreover, the EC50 at hAT1R [2] is more than 100000 nM. Also, on AGTR1 [3], the “IP-1 Ymax (%)” value came out at 5.7% and the concentration giving a half-maximal response (EC50) is 2940 nM. Also, at AGTR1 [4] (setting [6]), the EC50 worked out at 1110 nM and the “DiscoveRx β-arrestin2 Ymax (%)” value is on record as 19.4%.
On to `CCc1nc2c(C)cc(C)nc2n1Cc1ncc(-c2cc(-c3cccc(C)c3)ccc2C(=O)O)cn1` [Example 198, 3-(2-((2-ethyl-5,7-dimethyl-3H-imidazo[4,5-b]pyridin-3-yl)methyl)pyrimidin-5-yl)-3′-methylbiphenyl-4-carboxylic acid], for which, on hAT1R [1], the “BRET β-Arrestin2 High AT1R Expression Ymax (%)” value is 95.8% and the EC50 stood at 428 nM. In addition, at hAT1R [2], the “BRET P63 Ymax” value was determined as 13.4% and the EC50 was 7620 nM. In addition, on AGTR1 [3], the “IP-1 Ymax (%)” value is listed as 14.6% and the EC50 turned out to be 646 nM. For the same compound, on AGTR1 [4] (setting [6]), the EC50 amounted to 122 nM and the “DiscoveRx β-arrestin2 Ymax (%)” value amounted to 33.0%.
On to `CCc1nc2c(C)cc(C)nc2n1Cc1ccc(-c2cc(-c3ccc(C(=O)N(C)C)cc3)ccc2C(=O)O)cc1` [Example 185], for which, at hAT1R [1], the “BRET β-Arrestin2 High AT1R Expression Ymax (%)” value is 86.7% and the response was half-maximal at 149 nM (EC50). Moreover, at hAT1R [2], the “BRET P63 Ymax” value is recorded as 11.7% and the EC50 stood at 447 nM. Further, on AGTR1 [3], the “IP-1 Ymax (%)” value is 13.8% and the concentration giving a half-maximal response (EC50) stood at 204 nM. Moreover, on AGTR1 [4] (setting [6]), the half-maximal effective concentration (EC50) was determined as 139 nM and the “DiscoveRx β-arrestin2 Ymax (%)” value was 48.9%.
